Data from ChEMBL document CHEMBL1201862, “PubChem BioAssay data set” (2004).
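Values below derive from 48-hour exposures of cells grown in 96-well plates, with endpoints linearly interpolated between the two concentrations bracketing the appropriate inhibition level. The concentration for 50% growth inhibition is given as GI50.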 The source made the active and inactive calls. Cut-off read from the data, not from the text of the source: active = GI50 up to about 1.1 µM and inactive = higher.

Assays:
Test in all cases: NCI-60 cell line screen, 48 h
[1] = tested on: K562
[2] = tested on: SK-MEL-2
[3] = tested on: NCI-H522
[4] = tested on: U-251
[5] = tested on: IGROV-1
[6] = tested on: RPMI-8226
[7] = tested on: SR
[8] = tested on: NCI-H23
[9] = tested on: UACC-257
[10] = tested on: 786-0
[11] = tested on: LOX IMVI
[12] = tested on: SK-MEL-28
[13] = tested on: HOP-62
[14] = tested on: A498
[15] = tested on: CCRF-CEM
[16] = tested on: SF-539
[17] = tested on: UACC-62
[18] = tested on: SF-268
[19] = tested on: SNB-75

Measured: GI50

COc1ccc(N/N=C(\CCN(C)C)c2ccccc2)cc1
inactive: [1] 2.39 µM | [2] 4.49 µM | [3] 10.7 µM | [4] 1.79 µM | [5] 4.18 µM | [6] 2.39 µM | [7] 3.17 µM | [8] 4.43 µM | [9] 3.78 µM | [10] 3.4 µM | [11] 2.07 µM | [12] 2.69 µM | [13] 2.1 µM | [14] 14.9 µM | [15] 1.41 µM | [16] 1.68 µM | [17] 1.9 µM | [18] 1.62 µM | [19] 8.04 µM

CC(=O)Nc1ccc(/C=C/C(=O)c2sc(-n3nc(-c4ccccc4)cc3-c3ccccc3)nc2C)cc1
inactive: [1] > 10 µM | [2] > 10 µM | [3] 35.9 µM | [4] > 10 µM | [5] > 10 µM | [6] > 10 µM | [7] > 10 µM | [8] > 10 µM | [9] 80.9 µM | [10] > 10 µM | [11] > 10 µM | [12] > 10 µM | [13] > 10 µM | [14] > 10 µM | [15] > 10 µM | [16] > 10 µM | [17] > 10 µM | [18] > 10 µM | [19] > 10 µM

C=CCC12CC(=O)CCC1c1ccc(OC)cc1C2=O (centres undefined)
inactive: [1] > 100 µM | [2] > 100 µM | [3] > 100 µM | [4] > 100 µM | [5] > 100 µM | [6] > 100 µM | [7] > 100 µM | [8] > 100 µM | [9] > 100 µM | [10] > 100 µM | [11] > 100 µM | [12] > 100 µM | [13] > 100 µM | [14] > 100 µM | [15] > 100 µM | [16] > 100 µM | [17] > 100 µM | [18] > 100 µM | [19] > 100 µM

Cn1nc(-c2ccccc2)c2c(/C=C/c3ccccc3)onc2c1=O
inactive: [1] > 100 µM | [2] > 100 µM | [3] 37.3 µM | [4] 64 µM | [5] > 100 µM | [6] > 100 µM | [7] 95.7 µM | [8] > 100 µM | [9] > 100 µM | [10] 33 µM | [11] > 100 µM | [12] > 100 µM | [13] 41.8 µM | [14] > 100 µM | [15] > 100 µM | [16] 65.8 µM | [17] 23.8 µM | [18] 43.9 µM | [19] 27 µM

C=C1CN=C(Nc2ccc(F)cc2F)S1
inactive: [1] 30.5 µM | [2] > 100 µM | [4] > 100 µM | [5] > 100 µM | [6] 49.7 µM | [7] 36.8 µM | [8] > 100 µM | [9] > 100 µM | [10] > 100 µM | [11] 18.9 µM | [12] > 100 µM | [13] > 100 µM | [14] > 100 µM | [15] 18.3 µM | [16] > 100 µM | [18] > 100 µM | [19] 32.1 µM

COC(=O)C(=O)C1CCCCC(C2=NC3NN=C(N)N3C2=O)C1=O (centres undefined)
inactive: [1] > 100 µM | [2] > 100 µM | [3] > 100 µM | [4] > 100 µM | [5] > 100 µM | [7] > 100 µM | [8] > 100 µM | [9] > 100 µM | [10] > 100 µM | [11] > 100 µM | [12] > 100 µM | [13] > 100 µM | [14] > 100 µM | [15] > 100 µM | [16] > 100 µM | [17] > 100 µM | [18] > 100 µM | [19] > 100 µM

COc1cc(C)c(C)c(OC(=O)c2c(C)c(C)c(OC)c(C)c2OC)c1C
inactive: [1] 3.83 µM | [2] 5.04 µM | [3] 1.9 µM | [4] 3.74 µM | [5] 8.67 µM | [6] 13.6 µM | [7] 4.23 µM | [8] 10.4 µM | [9] 17.8 µM | [10] 12.3 µM | [11] 4.75 µM | [12] 20.4 µM | [13] 15 µM | [14] 16.6 µM | [15] 13.2 µM | [16] 14.1 µM | [17] 6.71 µM | [18] 11.8 µM | [19] 4.04 µM

Cc1ccc(NC(=O)C(=O)C(C#N)c2nc(-c3ccc(-c4ccccc4)cc3)cs2)c(C)c1 (centres undefined)
inactive: [2] > 100 µM | [4] 47.3 µM | [5] > 100 µM | [6] > 100 µM | [7] > 100 µM | [9] 58.7 µM | [10] > 100 µM | [11] > 100 µM | [12] > 100 µM | [13] > 100 µM | [14] > 100 µM | [16] > 100 µM | [17] > 100 µM | [18] > 100 µM | [19] > 100 µM

CC(C)N1C(C)[C@@H](c2ccccc2)O[P@@]1(=O)CC1=CCCCC1 (some centres undefined)
inactive: [1] 48.6 µM | [2] > 100 µM | [3] > 100 µM | [4] > 100 µM | [5] > 100 µM | [6] 49.1 µM | [7] 69.5 µM | [8] > 100 µM | [9] > 100 µM | [10] > 100 µM | [11] > 100 µM | [12] > 100 µM | [13] > 100 µM | [14] > 100 µM | [15] 48.5 µM | [16] > 100 µM | [17] 47.1 µM | [18] > 100 µM | [19] > 100 µM

C[C@]12CCC[C@H](Cl)C1(O)C[C@H](C(=O)O)CC2 (some centres undefined)
inactive: [1] > 100 µM | [2] > 100 µM | [3] > 100 µM | [4] > 100 µM | [5] > 100 µM | [6] > 100 µM | [7] > 100 µM | [8] > 100 µM | [9] > 100 µM | [10] > 100 µM | [11] > 100 µM | [12] > 100 µM | [13] > 100 µM | [14] > 100 µM | [15] > 100 µM | [16] > 100 µM | [17] > 100 µM | [18] > 100 µM | [19] > 100 µM

NC(CCC(=O)Nc1ccc(O)cc1)C(=O)O (centres undefined)
inactive: [1] > 100 µM | [2] > 100 µM | [3] > 100 µM | [4] > 100 µM | [6] > 100 µM | [7] > 100 µM | [9] > 100 µM | [10] > 100 µM | [11] > 100 µM | [12] > 100 µM | [13] > 100 µM | [14] > 100 µM | [15] > 100 µM | [17] > 100 µM | [18] > 100 µM | [19] > 100 µM
